Results as given in publication PMC11359197 (Viruses, 2024).

The compounds below were run against released M^pro-GST (Severe acute respiratory syndrome coronavirus 2, UniProt P0DTD1, Q3569E).
Format: cell-based, SARS-CoV-2
`CC(C)C[C@H](NC(=O)[C@H]1O[C@@H]1C(=O)O)C(=O)NCCCCN=C(N)N` [E-64] was tested, and the “GFP signal (GFP degradation by the released M^pro-GST)” value was “background levels”. With `CC(C)[C@H](O)C(=O)N[C@@H](C)C(=O)N[C@@H]1C(=O)N(C)CCc2ccccc21` [LY450139] the “GFP signal versus DMSO controls, pilot screen” value (“GFP signal versus DMSO controls” below) was “higher GFP signals”. For `CC(C)(C)NC(=O)N[C@H](C(=O)N1C[C@H]2[C@@H]([C@H]1C(=O)NC(CC1CCC1)C(=O)C(N)=O)C2(C)C)C(C)(C)C` (some centres unmarked) [boceprevir, Boceprevir], the “GFP signal (GFP degradation by the released M^pro-GST)” value was “consistently suppressed the GFP degradation” and the “GFP signal versus DMSO controls” value was “higher GFP signals”. For `Cc1cccc(C)c1OCC(=O)N[C@@H](Cc1ccccc1)[C@@H](O)C[C@H](Cc1ccccc1)NC(=O)[C@H](C(C)C)N1CCCNC1=O` [lopinavir], the “GFP signal (GFP degradation by the released M^pro-GST)” value was “background levels”. `CC(NC(=O)[C@H](Cc1ccccc1)NC(=O)OCc1ccccc1)C(=O)CF` (some centres unmarked) [Z-FA-FMK] was tested, and the “GFP signal (GFP degradation by the released M^pro-GST)” value was “consistently suppressed the GFP degradation” and the “GFP signal versus DMSO controls” value was “higher GFP signals”. For `COC(=O)N[C@H](C(=O)N[C@@H](Cc1ccccc1)[C@@H](O)CN(Cc1ccc(-c2ccccn2)cc1)NC(=O)[C@@H](NC(=O)OC)C(C)(C)C)C(C)(C)C` [atazanavir], the “GFP signal (GFP degradation by the released M^pro-GST)” value was “background levels”.
